Converted amounts (≈) assume the structure as drawn. “And” between values parts separate entries of the source, which are not always exact repeats. Equal entries are not always repeated. Where two headings read alike, the source gives them in different places.
Legend:
[1] = system: M. tuberculosis H37Rv; assay: BTZ efficacy in the acute animal model (mouse infection); assay type: in vivo; conditions: BALB/c mice, 5 x 10^6 CFU, gavage 37.5 or 300 mg per kg, once daily, 5 times/week, four weeks
Method: BTZ efficacy in vivo can be determined in a standard mouse infection model according to e.g. the following protocol. BALB/c mice are infected with M. tuberculosis H37Rv at a bacillary load of 5 x 10^6 CFU by injection into the eye venous sinus, 10 BALB/c mice per group. The first day of the treatment is day 8 after the infection. Mice are dosed by gavage with 37.5, or 300 mg of BTZ, per kg body weight, in carboxymethyl cellulose formulation (0.25%), once daily, 5 times/week, for four weeks. Negative control mice died 25-28 days after infection.

[2] = system: HUVEC; assay type: cell-based
Method: (§1) Test cells (see Table below for details) are seeded as 1x10^4 cells per well in a clear 96 well plate in a final volume of 100 µl in media. Cells are incubated for 24 hours at 37°C, 5% CO2 to allow cells to attach to the plates.
(§2) The compounds of the present invention are added in triplicate in a range of concentrations. For compound A e.g., the concentration started from 100µM,...and then 2-fold diluted to 0.78µM. Colistin and Tamoxifen were applied as controls.
(§3) The cells are incubated for 24 hours at 37°C, 5% CO2. MTT (3-(4,5-Dimethylthiazol-2-yl)-2,5-diphenyltetrazolium bromide) (Sigma) (dissolved in PBS) is added to each well to a final concentration of 0.4 mg/mL. The plate is then incubated for 1 hours at 37°C, 5% CO2. Media is removed, and crystals are resuspended in 60 µl of DMSO. Shaking the plate at room temperature for 10 minutes dissolves the formazan crystals, and the absorbance is then read at 570 nm.
(§4) Results are presented as the average percentage of control ± SD for each set of duplicate wells using the following equation: Percent Viability = (ABSTEST - ABS5%DMSO/ / ABSUNTREATED -ABS5%DMSO)*100. A 1% DMSO 'vehicle' control is also included to monitor the effect of DMSO on the cells (all pure compounds are diluted in 10 % DMSO, so final assay concentration is 1%).

[3] = system: K-562; assay type: cell-based
Method: as §1, §2, §3, §4

[4] = system: M smeg 5G987; assay: MIC assay, broth microdilution with resazurin; assay type: cell-based, Mycobacterium smegmatis; conditions: for MIC: Mycolicibacterium smegmatis
Method: (§5) The protocol used is based upon that detailed by the CLSI (Clinical and Laboratory Standards Institute (CLSI) 2006. Methods for Dilution Antimicrobial Susceptibility Tests for Bacteria that Grow Aerobically; Approved Standard. 7th edn. Document M7-A6. Clinical and Laboratory Standards Institute, Wayne, PA.).
(§6) The compounds are dissolved in DSMO in a concentration of 1 mg/ml and further diluted in water to achieve the final concentration, which is used as the highest concentration for determination of MIC. This highest concentration is filled in the first row of the microtiter plate and further diluted in the culture medium for the mycobacteria (Mueller-Hinton Broth and Middlebrook 7H9 broth). All solutions are freshly prepared under sterile conditions.
(§7) Ciprofloxacin, Isoniazid and Rifampicin can be used as reference compounds for control of the assay as well as a solvent control.
(§8) Minimal inhibitory concentrations (MIC) are determined according to the CLSI guidelines using the broth microdilution method. 50 µl of the compound solution are serially diluted directly in the microtiter plate by factor two with MHB or 7H9 media. Then the wells are inocalated with 50 µl of test organisms in MHB/7H9 to give a final concentration of 5x10^5 CFU/ml. After that the microtiter plates are incubated at 37°C for 48 h. Then 30 µl of resazurin solution is added to each well and plates are allowed to incubate at 37°C for additional 24 hrs. A change from blue to pink colour indicates reduction of resazurin and therefore bacterial growth. The MIC is defined as the lowest drug concentration that prevents this colour change.
(§9) Resazurin salt powder (Sigma) is prepared at 0.01 % (wt/vol) in distilled water, sterilized by filtration through a 0.22 µm membrane and stored at 4°C for a week.

[5] = system: M fort B; assay: MIC assay, broth microdilution with resazurin; assay type: cell-based; conditions: for MIC: read-out: MIC M fort B
Method: as §5, §6, §7, §8, §9

[6] = system: M vaccae 10670; assay: MIC assay, broth microdilution with resazurin; assay type: cell-based
Method: as §5, §6, §7, §8, §9

[7] = system: M aurum SB66; assay: MIC assay, broth microdilution with resazurin; assay type: cell-based; conditions: for activity against M. aureum strain SB66: strain resistant against agents that target decaprenylphosporyl-β-D-ribose 2'-epimerase
Method: as §5, §6, §7, §8, §9

[8] = system: Mycobacterium smegmatis, ATCC 700084; assay: MIC assay, broth microdilution with resazurin; assay type: cell-based; conditions: Mycolicibacterium smegmatis, ATCC700084; head carries superscript IMB; read-out: MIC M smeg 700084
Method: as §5, §6, §7, §8, §9

[9] = Cytotoxicity assay (MTT); assay type: cell-based; conditions: human
Method: as §1, §2, §3, §4

[10] = Stability in plasma (H); conditions: first value of the cell
[11] = physchem; conditions: 20 °C, pH 7.4, aqueous buffer, kinetic from dmso stock
[12] = system: M tb MDR (BACTEC); assay: microbe, parasite or virus in culture; assay type: cell-based, M. tuberculosis; conditions: for MIC: Mycobacterium tuberculosis
[13] = Stability in plasma (M); conditions: second value of the cell
[14] = system: mycobacteria; conditions: comparison values, strain not named; cited from earlier work
[15] = system: HeLa; assay: Cytotoxicity assay (MTT); assay type: cell-based; conditions: 24 hours, read-out: CytoTox HeLa (CC50)
Method: as §1, §2, §3, §4

[16] = system: HepG2; assay: Cytotoxicity assay (MTT); assay type: cell-based; conditions: 24 hours, read-out: CytoTox HepG2 (CC50)
Method: as §1, §2, §3, §4

[17] = system: HEK293; assay: Cytotoxicity assay (MTT); assay type: cell-based; conditions: 24 hours, read-out: CytoTox HEK293 (CC50)
Method: as §1, §2, §3, §4

[18] = 5G987, read-out: MIC M smeg 5G987

In the case of `CN(C(=O)CN1CCN(c2nc(=O)c3cc(C(F)(F)F)cc([N+](=O)[O-])c3s2)CC1)c1ccccc1` [Compound A], the “efficacy, life of the treated mice” value [1] is reported as “very effective in this model and significantly prolonged the life of the treated mice”, the “CytoTox HUVEC (GC50)” value ([2]; human, 24 h) is reported as 18 µM and the “CytoTox K-562 (GC50)” value ([3]; human, 24 h) is reported as 30 µM. For the same molecule, the MIC ([4]; 5G987, molar value in brackets, strain not named, read-out: MIC against Mycobacterium smegmatis) was 0.025 µM, the MIC [4, 18] was 0.0125 µg/mL and the MIC ([4]; 5G987, read-out: MIC against Mycobacterium smegmatis) was 0.012 µg/mL. For the same molecule, the MIC [5] was 0.0125 µg/mL (≈ 0.0246 µM), the MIC [6] was 0.00312 µg/mL (≈ 0.00615 µM) and the MIC [7] was > 100 µg/mL. The “activity against M. aureum strain SB66” value [7] was “neither compound A nor the Reference compound I are active”, the MIC [8] was 0.015 µg/mL (≈ 0.0296 µM) and the CC50 at 24 h ([9]; HEK293 cells, read-out: CytoTox HEK293 (CC50)) was > 100 µM. For the same molecule, the CC50 at 24 h ([9]; HeLa cells, read-out: CytoTox HeLa (CC50)) was 39 µM, the CC50 at 24 h ([9]; HepG2 cells, read-out: CytoTox HepG2 (CC50)) was > 100 µM and the “Stability Plasma (H/M)” value [10] was 95%. For the same molecule, the solubility at 20 h [11] was 12 µM (≈ 6.09 µg/mL), the MIC ([12]; read-out: MIC M tb MDR (BACTEC)) was 0.03 µg/mL (≈ 0.0591 µM) and the MIC ([12]; read-out: MIC against MDR M. tuberculosis) was 0.03 µg/mL and 0.059 µM. The “Stability Plasma (H/M)” value [13] was 115%.
For `CC[C@@H](CO)NCCN[C@@H](CC)CO` [ethambutol], the “MIC of the existing TB drugs” value [14] is given as 1 to 5 µg/mL.
For `NNC(=O)c1ccncc1` [isoniazid], the “MIC of the existing TB drugs” value [14] is listed as 0.02 to 0.2 µg/mL.
Work on `O=c1nc(N2CCN(Cc3ccccc3)CC2)sc2c([N+](=O)[O-])cc(C(F)(F)F)cc12` [Cpd 7 of WO 2009/010163, reference compound] yielded an MIC [4, 18] of 0.05 µg/mL and an MIC [5] of 0.05 µg/mL (≈ 0.111 µM).
For `CC1COC2(CCN(c3nc(=O)c4cc(C(F)(F)F)cc([N+](=O)[O-])c4s3)CC2)O1` (stereo not shown) [Cpd 1 of WO 2007/134625, reference compound], the “CytoTox HUVEC (GC50)” value [2] was 8 µM, the “CytoTox K-562 (GC50)” value [3] was 11 µM and the “MIC M smeg 5G987” value [4] was 0.00312 µg/mL (≈ 0.00723 µM). The “MIC M fort B” value [5] was 0.00156 µg/mL (≈ 0.00362 µM), the MIC [6] was 0.0004 µg/mL (≈ 0.000927 µM) and the “MIC M aurum SB66” value [7] was >100 µg/mL. The “activity against M. aureum strain SB66” value [7] was “neither compound A nor the Reference compound I are active”, the MIC [8] was 0.008 µg/mL (≈ 0.0185 µM) and the CC50 [15] was > 50 µM. For the same molecule, the CC50 [16] was > 100 µM, the CC50 [17] was > 100 µM and the “Stability Plasma (H/M)” value [10] was 107%. The “MIC M tb MDR (BACTEC)” value [12] was ≤0.015 µg/mL and the “Stability Plasma (H/M)” value [13] was 97%.

From patent EP2468746A1, “Benzothiazinone compounds and their use as anti-tuberculosis agents” (priority 2010, dated 2012)
